Measured values: patent publication US12076307B2, “Compositions for prevention or treatment of acute radiation syndrome and other radiation exposure” (priority 2017, dated 2024)
Several values for one entry are separate records, joined by “and”; a condition that tells them apart may be missing. Equal values may be shown once. Read-outs that look alike come from different tables or passages of the source.

Experiments:
[1] = Plasma and lymphatic concentrations of EC-18 in rats after single oral administration; type: in vivo, rat; conditions: for AUC(0-t) / Cmax / Tmax / half-life: n=3
Method: After administering a single oral dose of 500 or 2000 mg/kg of EC-18 (vehicle: olive oil) to male SD rats, the EC-18 concentration in the sampled plasma and lymphatic fluid was measured to generate the values of PK parameters (Table 16). […] The rate of increase in plasma Cmax and AUClast was lower than the rate of increase of the administered dosage.

[2] = tested on: Balb/c mice, 6.11 Gy TBI; assay: Dosing schedule optimization (delayed treatment) in LD70/30 model; type: in vivo, mouse
Method: EC-18 was administered daily in-life with its optimal dosage (250 mg/kg) at 0, 1, 2, and 3 days after irradiation on Day 0. To examine the durable efficacy of EC-18, the survival was examined 15 days after the in-life phase without the daily treatment of EC-18.
EC-18 was administered daily in-life with its optimal dosage (250 mg/kg) at 0, 1, 2, and 3 days after irradiation on Day 0. The survival rate of the γ-radiation only group was 35%. The percentages of survival of the irradiated mice with EC-18+0d, +1d, +2d, and +3d were 80, 70, 55, and 80%, respectively (FIG. 72).

[3] = tested on: S. typhi-murium (TA98, TA100, TA1535, TA1537), E. coli (WP2uvrA(pKM101)); type: cell-based; conditions: in vitro; 48 hr; 312.5-5000 μg/plate
From the text: Various toxicology studies have been performed. All studies were GLP-compliant unless otherwise noted.

[4] = tested on: CYP1A2; type: in vitro ADME, human; conditions: for Enzyme Activity CYP1A2: n=3
[5] = molecular target: T1, OAT3 (Homo sapiens, UniProt Q8TCC7); assay: Drug transporter inhibition, OAT3; type: in vitro ADME; conditions: 100 nM [3H] estrone-3-sulfate; transfected HEK-293 cells
T1 construct: expressed in transfected cells; host or cells: HEK-293
T1 sequence (Q8TCC7 whole entry, species assumed): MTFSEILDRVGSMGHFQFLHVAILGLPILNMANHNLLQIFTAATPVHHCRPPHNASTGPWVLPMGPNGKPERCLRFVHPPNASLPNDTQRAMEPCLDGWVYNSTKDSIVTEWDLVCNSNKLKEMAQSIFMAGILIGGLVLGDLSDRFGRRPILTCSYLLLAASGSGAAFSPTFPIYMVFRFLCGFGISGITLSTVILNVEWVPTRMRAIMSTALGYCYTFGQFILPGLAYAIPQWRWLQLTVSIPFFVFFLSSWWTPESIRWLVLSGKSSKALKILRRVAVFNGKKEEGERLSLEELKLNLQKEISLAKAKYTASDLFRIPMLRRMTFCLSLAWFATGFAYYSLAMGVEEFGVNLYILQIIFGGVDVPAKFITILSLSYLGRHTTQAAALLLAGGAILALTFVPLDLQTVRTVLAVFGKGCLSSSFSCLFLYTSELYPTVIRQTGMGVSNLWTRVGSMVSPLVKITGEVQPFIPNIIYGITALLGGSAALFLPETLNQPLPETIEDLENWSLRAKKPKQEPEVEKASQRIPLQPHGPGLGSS
Method: This study examined the potential of EC-18 to interact with the transporter proteins that have been known to be involved in the absorption of commercially available drugs. EC-18 was pre-incubated with HEK-293 cells and LLC-PK1 cells that were transfected with the genes of most drug transporters as follows: OATP1B1, OATP1B3, OAT1, OAT3 and OCT2, and BCRP and P-gp, respectively.

[6] = Plasma radioactivity in rats after single oral or IV [14C]EC-18; type: in vivo, rat; conditions: oral, fed condition
Method: Male SD rats in the fed state were administered a single oral dose of 25, 50, or 100 mg/kg (vehicle: olive oil) or a single IV injection of 10 mg/kg of [^14C]EC-18 (EC-18 with radioactive isotope ^14C attached). Subsequently, the PK parameters were assessed. The concentration of radioactivity in rat plasma was measured by liquid scintillation counting (LSC) method after adding a scintillator (Clear-Sol I, Nacalai Tesque, Inc).

[7] = tested on: EGFR; assay: Western blot of EGFR activity, comparison to G-CSF; type: cell-based; conditions: cells stimulated with neutrophil or G-CSF-activated neutrophils
Method: The effects of EC-18 in comparison to G-CSF to cells after γ-radiation were measured by western blot (FIG. 25). The experiment can i) show correlation between EGFR activity and the abnormal growth and metastasis induction of breast cancer cells in the TAN environment and ii) confirm inhibitory effect mechanism by PLAG treatment in this condition. In fact, it was confirmed that EGFR activity was increased in the groups stimulated with neutrophil or G-CSF-activated neutrophils, however, the activity of EGFR (Phosphorylation of EGFR) was decreased in the group treated with PLAG. FIG. 26 can show effects of PLAG in comparison to G-CSF.

[8] = In vitro metabolite screening, dog liver microsomes; type: in vitro ADME; conditions: N=2
Method: [^14C]EC-18 or the positive control (7-ethoxycoumarin; 7-EC) reacted with microsomes prepared from hepatocytes of rats, dogs, monkeys, and humans, with or without cofactors, for 60 and 120 min. Then, the residual EC-18 concentration over time was measured by LC-RID ([^14C]EC-18) or LC-MS/MS (7-EC) (FIG. 63 and FIG. 64).
The LC-RID chromatographic profiles of radioactive metabolites produced in the 2-hr incubation reaction mixtures of the same test systems A, B, and C used to assess the metabolic and non-metabolic elimination rates of EC-18 were compared to the LC-UV chromatographic profiles of the synthetic reference material. […] The relative radioactivity of EC-18 accounted for 42-67% of total radioactivity. The peaks designated as M2, M3, and M5 were also determined in all species, and their relative radioactivity accounted for 12-34% of total radioactivity. The peaks of M4 and M6 were determined in monkeys and humans. M1 was abundantly detected in all species, but it was assumed to be a peak of early elution. The LC-UV chromatograms of reaction mixtures in each test system (FIGS. 65A-65C) and the relative radioactivity of the screened metabolites are shown in Table 25.

[9] = male, SD, rat, Lymph, 500 mg/kg oral
[10] = male, SD, rat, Lymph, 2000 mg/kg oral
[11] = male, SD, rat, Plasma, 500 mg/kg oral
[12] = male, SD, rat, Plasma, 2000 mg/kg oral
[13] = 6.11 Gy, 250 mg/kg daily starting +0 d
[14] = 6.11 Gy, 250 mg/kg daily starting +1 d
[15] = 6.11 Gy, 250 mg/kg daily starting +2 d
[16] = 6.11 Gy, 250 mg/kg daily starting +3 d
[17] = 6.11 Gy, 250 mg/kg daily starting +3 d, 250 mg/kg

CCCCC/C=C\C/C=C\CCCCCCCC(=O)OC(COC(C)=O)COC(=O)CCCCCCCCCCCCCCC (centres unmarked) [EC-18, 1-palmitoyl-2-linoleoyl-3-acetylglycerol]
bioavailability ([1]; male, SD, rat, plasma, 500-2000 mg/kg oral, read-out: mean absolute bioavailability (BA)): < 0.3% | AUC(0-t) [1, 9]: 903 ± 272 ng·h/mL | Cmax [1, 9]: 78.1 ± 34.1 ng/mL | Tmax [1, 9]: 3.33 ± 1.15 h | AUC(0-t) [1, 10]: 2630 ± 1130 ng·h/mL | Cmax [1, 10]: 245 ± 54.2 ng/mL | Tmax [1, 10]: 3 ± 2.65 h | half-life [1, 10]: 12.3 ± 5.08 h | AUC(0-t) [1, 11]: 6.97 ± 8.2 ng·h/mL | Cmax [1, 11]: 6.87 ± 6.12 ng/mL | Tmax [1, 11]: 0.5 ± 0.5 h | AUC(0-t) [1, 12]: 44.5 ± 39.5 ng·h/mL | Cmax [1, 12]: 12.1 ± 6.66 ng/mL | Tmax [1, 12]: 1.67 ± 0.58 h | half-life [1, 12]: 3.07 ± 0.87 h | time to reach the lymphatic system ([1]; single oral): ≤ 3 h | time to absorption ([1]; single oral 500 or 2000 mg/kg): ≤ 2 h | survival vs negative control ([2]; 250 mg/kg, even up to 3-day-delayed treatment regimen): significantly improved | weight loss induced by irradiation ([2]; 6.11 Gy, 250 mg/kg): effectively prevented and rapidly recovered weight loss | No. of mice that survived/total [2, 13]: 16/20 | Survival [2, 13]: 80% | Survival time of decedents, Median [2, 13]: 24.5 days | Survival time of decedents, Mean ± SEM ([2]; 6.11 Gy, 250 mg/kg daily starting +0 d, 250 mg/kg): 25.0 days and 25.0 ± 1.1 days | No. of mice that survived/total [2, 14]: 14/20 | Survival [2, 14]: 70% | Survival time of decedents, Median [2, 14]: 23.5 days | Survival time of decedents, Mean ± SEM ([2]; 6.11 Gy, 250 mg/kg daily starting +1 d, 250 mg/kg): 23.7 days and 23.7 ± 1.4 days | No. of mice that survived/total [2, 15]: 11/20 | Survival [2, 15]: 55% | Survival time of decedents, Median [2, 15]: 18.0 days | Survival time of decedents, Mean ± SEM ([2]; 6.11 Gy, 250 mg/kg daily starting +2 d, 250 mg/kg): 18.1 days and 18.1 ± 0.8 days | No. of mice that survived/total [2, 16]: 11/20 | Survival time of decedents, Median [2, 16]: 23.0 days | Survival [2, 17]: 80% and 55% | Survival time of decedents, Mean ± SEM [2, 17]: 22.3 days and 22.3 ± 1.6 days | durable efficacy after withdrawal of EC-18 ([2]; 15 days after the in-life phase without daily treatment): extended the survival of animals for an extra 15 days | induction of reverse mutation [3]: No potential of EC-18 | Enzyme Activity CYP1A2 ([4]; 1 μM): 0.33 ± 0.04 pmol/106 Cells/Min | Enzyme Activity CYP1A2 ([4]; 10 μM): 0.38 ± 0.06 pmol/106 Cells/Min | Enzyme Activity CYP1A2 ([4]; 100 μM): 0.33 ± 0.04 pmol/106 Cells/Min | potential to induce CYP1A2 ([4]; up to 100 μM): no potential to induce | IC50 [5]: > 32 µM | absolute bioavailability (BA) [6]: approximately 46% | activity of EGFR (Phosphorylation of EGFR) [7]: decreased | Mean Peak Area in LC-RID ([8]; A (NADPH added), [14C]EC-18 2 hrs): 52.6% | Mean Peak Area in LC-RID ([8]; B (NADPH, PAPS, UDPGA added), 2 hrs): 54.3% | Mean Peak Area in LC-RID ([8]; C (no cofactor added), 2 hrs): 56.6%
